Source: article PMC11340245, “Studies of Protein Binding to Biomimetic Membranes Using a Group of Uniform Materials Based on Organic Salts Derived From 8-Anilino-1-naphthalenesulfonic Acid” (Applied Spectroscopy, 2024)

Test: Thermal stability by thermogravimetric analysis (TGA)
Format: physicochemical
Conditions: heated from 25 to 595 °C, ramp rate 10 °C min^–1
Protocol: The thermal stability of [N4444][ANS] and [P4444][ANS] was investigated using a TA Discovery TGA 550 instrument. GUMBOS were heated from 25 to 595 °C using a ramp rate of 10 °C min^–1. The melting points of these compounds were also determined using a MEL-TEMP apparatus. Membrane partition and competitive binding assays were performed on a BioTek Cytation 3 imaging reader.
Thermal behaviors of [N4444][ANS] and [P4444][ANS] GUMBOS were further investigated using TGA. Figure S14 and Table S2 (Supplemental Material) present the weight loss curves and temperatures at which GUMBOS weight was reduced by 50% (T50%), respectively.

T50% (half weight loss temperature)	Structure (SMILES)
308 ºC	CCCC[N+](CCCC)(CCCC)CCCC.O=S(=O)([O-])c1cccc2cccc(Nc3ccccc3)c12 [[N4444][ANS]]
422 ºC	CCCC[P+](CCCC)(CCCC)CCCC.O=S(=O)([O-])c1cccc2cccc(Nc3ccccc3)c12 [[P4444][ANS]]
